The results in this text go back to patent US6124347A, “Chromene derivatives and salts thereof, and pharmaceuticals containing the same” (SSP Co., Ltd., priority 1997, dated 2000).

Molecules are shown by their SMILES. Values after ≈ are worked out from the molar mass of the structure shown.

This assay relates to ovolysozyme. Put plainly: AGE formation inhibitory action (lysozyme dimer formation with xylose, SDS-PAGE, silver staining). The class given is biochemical. Particulars: 1 mg/ml ovolysozyme, 100 mM xylose, pH 7.4, 37° C., 21 days; dimer (28.8 Kda) formation relative to control. As for the experimental part:
With respect to each test compound, solutions of the test compound in dimethyl sulfoxide, said solutions containing said test compound at various concentrations, were each added together with 1 mg/ml of ovolysozyme and 100 mM of xylose to a phosphate-buffered physiological saline of pH 7.4. Each reaction mixture was then incubated at 37° C. for 21 days. A portion of the reaction mixture, said portion being in a predetermined amount, was then separated by sodium lauryl sulfate-polyacrylamide gel electrophoresis (SDS-PAGE). After the electrophoresis, the gel was treated by silver staining to stain proteins. AGE formation inhibitory action of the test compound was calculated in terms of 50% inhibitory concentration by image-processing and analyzing the degree of formation of the dimer (28.8 Kda) of lysozyme (14.4 Kda) relative to that in a control, that is, a reaction mixture not added with the test compound while making use of NIH Image Ver. 1.55.
In the case of `COc1cc(C(O)CNCC2=Cc3ccccc3OC2)cc(OC)c1O` (stereo not shown) [Compound 9, 4-{2-[(2H-3-chromenylmethyl)amino]-1-hydroxyethyl}-2,6-dimethoxyphenol], the “IC50 (AGE formation inhibitory action, 50% inhibitory concentration)” value was determined as 30 µg/mL (≈ 83.9 µM).
Then `Oc1cccc(C(O)CNCC2=Cc3ccccc3OC2)c1` (stereo not shown) [Compound 6], with 10 µg/mL (≈ 33.6 µM).
With `COc1cccc2c1OCC(CNCC(O)c1ccc(O)c(O)c1)=C2` (stereo not shown) [Compound 15] the figure was 3 µg/mL (≈ 8.74 µM).
As to `N=C(N)NN` [Amionoguanidine, aminoguanidine, reference compound], the “IC50 (AGE formation inhibitory action, 50% inhibitory concentration)” value came to 30 µg/mL (≈ 405 µM).
